The values below come from patent publication US12404295B2, “(Hetero)aryl-methyl-thio-beta-D-galactopyranoside derivatives” (Idorsia Pharmaceuticals Ltd, priority 2019, dated 2025).

The target in test [1] is human Gal-3 (hGal-3) (Homo sapiens (Human), UniProt P17931). The test can be described thus: competitive binding assay: biotinylated hGal-3 binding to microplate-adsorbed asialofetuin (ASF). In short, it runs like this: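 Compounds serially diluted in DMSO compete with asialofetuin for biotinylated human Gal-3; plates are incubated 3 h at 4 °C, washed, then treated 1 h at 4 °C with streptavidin-peroxidase (80 ng/mL) and developed with ABTS. IC50 values are means of several measurements.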
Sequence of human Gal-3 (hGal-3) (P17931 whole entry): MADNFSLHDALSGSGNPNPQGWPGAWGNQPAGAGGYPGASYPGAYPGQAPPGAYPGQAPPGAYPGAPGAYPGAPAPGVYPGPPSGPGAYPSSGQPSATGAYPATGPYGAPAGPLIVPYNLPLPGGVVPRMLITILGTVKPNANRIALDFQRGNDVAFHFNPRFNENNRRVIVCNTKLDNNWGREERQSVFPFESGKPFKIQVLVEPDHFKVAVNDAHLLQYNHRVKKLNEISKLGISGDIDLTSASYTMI

Test [2] deals with human Gal-1 (hGal-1) (Homo sapiens (Human), UniProt P09382). Nature of the test: competitive binding assay: biotinylated hGal-1 binding to microplate-adsorbed asialofetuin (ASF). To be noted: Table 15; read-out: IC50 (Galectin-1 inhibition). In short, it runs like this:
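Biotinylated human Gal-1 (300-1000 ng/mL) competes with serially diluted compound for binding to ASF-coated plates, 3 h at 4° C. Bound protein detected with streptavidin-peroxidase and ABTS substrate (spectrophotometric). IC50 given as mean of several measurements.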

Setting [3] is: Gal-3 inhibition, binding of biotinylated hGal-3 to ASF, mean values, read-out: IC50.
Where [4] appears, read: Table 9, 2-OMe-Gal inhibitors, read-out: IC50 (Gal-3 inhibition).
Where [5] appears, read: Table 5, read-out: IC50 (Gal-3 inhibition).
[6] abbreviates: Table 10, 2-OMe-Gal inhibitors, read-out: IC50 (Gal-3 inhibition).

Read-outs that look alike come from different tables or passages of the source.

Sequence of human Gal-1 (hGal-1) (P09382 whole entry): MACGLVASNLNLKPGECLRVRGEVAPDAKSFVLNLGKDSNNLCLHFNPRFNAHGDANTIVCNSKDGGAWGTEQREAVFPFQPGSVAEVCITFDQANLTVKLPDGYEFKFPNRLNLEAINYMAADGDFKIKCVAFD

A word on the IC50: it is the concentration at which inhibition is half-maximal. For the compound `Cc1conc1[C@H](S[C@@H]1O[C@H](CO)[C@H](O)[C@H](n2cc(-c3cc(F)c(F)c(F)c3)nn2)[C@H]1O)C(C)(C)O` [Example 2.31.120S., (2S,3R,4S,5R,6R)-2-(((S)-2-Hydroxy-2-methyl-1-(4-methylisoxazol-3-yl)propyl)thio)-6-(hydroxymethyl)-4-(4-(3,4,5-trifluorophenyl)-1H-1,2,3-triazol-1-yl)tetrahydro-2H-pyran-3,5-diol], the figures for the IC50 in test [1] (setting [3]) and in test [2] were 12400 nM and 61300 nM, respectively.

In the case of `CO[C@@H]1[C@@H](n2cc(-c3cc(F)c(F)c(F)c3)nn2)[C@@H](O)[C@@H](CO)O[C@H]1S[C@H](c1nccnc1C)C1(O)CCC(F)(F)CC1` [Example 2.44.129R.I., (2R,3R,4S,5R,6S)-6-(((R)-(4,4-Difluoro-1-hydroxycyclohexyl)(3-methylpyrazin-2-yl)methyl)thio)-2-(hydroxymethyl)-5-methoxy-4-(4-(3,4,5-trifluorophenyl)-1H-1,2,3-triazol-1-yl)tetrahydro-2H-pyran-3-ol [1,3-di-deoxy-1-((4,4-difluoro-1-hydroxy-cyclohexan-1-yl)-(3-(-methyl)pyrazin-2-yl)methyl-(R)-thio)-2-O-methyl-3-[4-(3,4,5-trifluorophenyl)-1H-1,2,3-triazol-1-yl]-b-D-galactopyranoside]], the figures for the 50% inhibitory concentration (IC50) in test [1] (setting [4]) and in test [2] were 50 nM and 300 nM, respectively.

Consider “(2S,3R,4S,5R,6R)-2-(((S)-((S)-4-Hydroxy-2,2-dimethyltetrahydro-2H-pyran-4-yl)(2-(trifluoromethyl)phenyl)methyl)thio)-6-(hydroxymethyl)-4-(4-(3,4,5-trifluorophenyl)-1H-1,2,3-triazol-1-yl)tetrahydro-2H-pyran-3,5-diol [Example 2.43.102SS.]”, for which the IC50 in test [1] (setting [5]) worked out at 3920 nM; in test [2], 69500 nM.

In the case of `CCc1c([C@@H](S[C@@H]2O[C@H](CO)[C@H](O)[C@H](n3cc(-c4cc(F)c(F)c(F)c4)nn3)[C@H]2O)C2(O)CCC(F)(F)CC2)noc1C1CC1` [Example 2.44.130R., (2S,3R,4S,5R,6R)-2-(((R)-(5-Cyclopropyl-4-ethylisoxazol-3-yl)(4,4-difluoro-1-hydroxycyclohexyl)methyl)thio)-6-(hydroxymethyl)-4-(4-(3,4,5-trifluorophenyl)-1H-1,2,3-triazol-1-yl)tetrahydro-2H-pyran-3,5-diol], the IC50 turned out to be 20 nM in test [1] (setting [3]) and 160 nM in test [2].

Turning to `OC[C@H]1O[C@@H](SC(c2ccccc2C(F)(F)F)C(O)c2ccccc2)[C@H](O)[C@@H](n2cc(-c3cc(F)c(F)c(F)c3)nn2)[C@H]1O` (stereo partly drawn) [Example 2.61.112., (2S,3R,4S,5R,6R)-2-((2-Hydroxy-2-phenyl-1-(2-(trifluoromethyl)phenyl)ethyl)thio)-6-(hydroxymethyl)-4-(4-(3,4,5-trifluorophenyl)-1H-1,2,3-triazol-1-yl)tetrahydro-2H-pyran-3,5-diol], the IC50 was 1100 nM in test [1] (setting [3]) and 7880 nM in test [2].

Consider `Cc1ccccc1C(S[C@@H]1O[C@H](CO)[C@H](O)[C@H](n2cc(-c3cc(F)c(F)c(F)c3)nn2)[C@H]1O)C1(O)CCOCC1` (stereo partly drawn) [Example 2.41.102.], for which the IC50 in test [1] (setting [5]) worked out at 90 nM; in test [2], 1610 nM.

Regarding `CO[C@@H]1[C@@H](n2cc(-c3cc(F)c(C)c(F)c3)nn2)[C@@H](O)[C@@H](CO)O[C@H]1S[C@@H](c1ncccc1C)C1(O)CCC(F)(F)CC1` [Example 3.44.126S.I., (2R,3R,4S,5R,6S)-6-(((S)-(4,4-Difluoro-1-hydroxycyclohexyl)(3-methylpyridin-2-yl)methyl)thio)-4-(4-(3,5-difluoro-4-methylphenyl)-1H-1,2,3-triazol-1-yl)-2-(hydroxymethyl)-5-methoxytetrahydro-2H-pyran-3-ol], the IC50 was found to be 1160 nM in test [1] (Table 14, read-out: IC50 (Gal-3 inhibition)) and 20000 nM in test [2].

Consider `CC(C)(O)[C@H](S[C@@H]1O[C@H](CO)[C@H](O)[C@H](n2cc(-c3cc(F)c(F)c(F)c3)nn2)[C@H]1O)c1ccccc1-c1ccccc1` [Example 2.31.110R., (2S,3R,4S,5R,6R)-2-(((R)-1-([1,1′-Biphenyl]-2-yl)-2-hydroxy-2-methylpropyl)thio)-6-(hydroxymethyl)-4-(4-(3,4,5-trifluorophenyl)-1H-1,2,3-triazol-1-yl)tetrahydro-2H-pyran-3,5-diol], for which the 50% inhibitory concentration (IC50) in test [1] (setting [3]) turned out to be 220 nM; in test [2] it was 280 nM.

With `CO[C@@H]1[C@@H](n2cc(-c3cc(F)c(F)c(F)c3)nn2)[C@@H](O)[C@@H](CO)O[C@H]1S[C@H](c1c(C)cnn1C)C1(O)CCC(F)(F)CC1` [Example 2.44.136R.I., (2R,3R,4S,5R,6S)-6-(((R)-(4,4-Difluoro-1-hydroxycyclohexyl)(1,4-dimethyl-1H-pyrazol-5-yl)methyl)thio)-2-(hydroxymethyl)-5-methoxy-4-(4-(3,4,5-trifluorophenyl)-1H-1,2,3-triazol-1-yl)tetrahydro-2H-pyran-3-ol], the figures for the IC50 in test [1] (setting [6]) and in test [2] were 260 nM and 1900 nM, respectively.

For `CC(C)(O)[C@H](S[C@@H]1O[C@H](CO)[C@H](O)[C@H](n2cc(-c3cc(F)c(F)c(F)c3)nn2)[C@H]1O)c1ccccc1CCO` [Example 2.31.108R., (2S,3R,4S,5R,6R)-2-(((R)-2-Hydroxy-1-(2-(2-hydroxyethyl)phenyl)-2-methylpropyl)thio)-6-(hydroxymethyl)-4-(4-(3,4,5-trifluorophenyl)-1H-1,2,3-triazol-1-yl)tetrahydro-2H-pyran-3,5-diol], the results for the IC50 in test [1] (setting [3]) and in test [2] were 270 nM and 390 nM, respectively.

For the compound `Cc1c(F)cccc1[C@H](S[C@@H]1O[C@H](CO)[C@H](O)[C@H](n2cc(-c3cc(F)c(F)c(F)c3)nn2)[C@H]1O)C(C)(C)O` (single isomer, unassigned) [Example 2.31.114R.], the IC50 in test [1] (setting [3]) was found to be 180 nM; in test [2] it was 7240 nM.

Consider `CO[C@@H]1[C@@H](n2cc(-c3cc(F)c(F)c(F)c3)nn2)[C@@H](O)[C@@H](CO)O[C@H]1S[C@@H](c1c(C)cnn1C)C1(O)CCC(F)(F)CC1` [Example 2.44.136S.I., (2R,3R,4S,5R,6S)-6-(((S)-(4,4-Difluoro-1-hydroxycyclohexyl)(1,4-dimethyl-1H-pyrazol-5-yl)methyl)thio)-2-(hydroxymethyl)-5-methoxy-4-(4-(3,4,5-trifluorophenyl)-1H-1,2,3-triazol-1-yl)tetrahydro-2H-pyran-3-ol], for which the IC50 in test [1] (setting [6]) is 15600 nM; in test [2] it was over 100000 nM.

As for `CO[C@@H]1[C@@H](n2cc(-c3cc(F)c(F)c(F)c3)nn2)[C@@H](O)[C@@H](CO)O[C@H]1S[C@H](c1ncccc1C(F)(F)F)C1(O)CCCCC1` [Example 2.39.125R.I., (2R,3R,4S,5R,6S)-6-(((R)-(1-Hydroxycyclohexyl)(3-(trifluoromethyl)pyridin-2-yl)methyl)thio)-2-(hydroxymethyl)-5-methoxy-4-(4-(3,4,5-trifluorophenyl)-1H-1,2,3-triazol-1-yl)tetrahydro-2H-pyran-3-ol], the IC50 in test [1] (setting [4]) came to 90 nM; in test [2], 460 nM.

For `OC[C@H]1O[C@@H](SC(c2ncccc2C2CC2)C2(O)CCC(F)(F)CC2)[C@H](O)[C@@H](n2cc(-c3cc(F)c(F)c(F)c3)nn2)[C@H]1O` (stereo partly drawn) [Example 2.44.134., (2S,3R,4S,5R,6R)-2-(((3-Cyclopropylpyridin-2-yl)(4,4-difluoro-1-hydroxycyclohexyl)methyl)thio)-6-(hydroxymethyl)-4-(4-(3,4,5-trifluorophenyl)-1H-1,2,3-triazol-1-yl)tetrahydro-2H-pyran-3,5-diol], the IC50 stood at 70 nM in test [1] (setting [3]) and 140 nM in test [2].

On to `CO[C@@H]1[C@@H](n2cc(-c3cc(F)c(F)c(F)c3)nn2)[C@@H](O)[C@@H](CO)O[C@H]1S[C@H](c1ccccc1C)[C@]1(O)CCOC(C)(C)C1` [Example 2.43.102RS.I., (2R,3R,4S,5R,6S)-6-(((R)-((S)-4-Hydroxy-2,2-dimethyltetrahydro-2H-pyran-4-yl)(o-tolyl)methyl)thio)-2-(hydroxymethyl)-5-methoxy-4-(4-(3,4,5-trifluorophenyl)-1H-1,2,3-triazol-1-yl)tetrahydro-2H-pyran-3-ol], for which the 50% inhibitory concentration (IC50) came out at 60 nM in test [1] (setting [4]) and 1900 nM in test [2].

For the compound `CN1CCC(O)([C@H](S[C@@H]2O[C@H](CO)[C@H](O)[C@H](n3cc(-c4cc(F)c(F)c(F)c4)nn3)[C@H]2O)c2ncccc2C(F)(F)F)CC1` [Example 2.40.125R., (2S,3R,4S,5R,6R)-2-(((R)-(4-Hydroxy-1-methylpiperidin-4-yl)(3-(trifluoromethyl)pyridin-2-yl)methyl)thio)-6-(hydroxymethyl)-4-(4-(3,4,5-trifluorophenyl)-1H-1,2,3-triazol-1-yl)tetrahydro-2H-pyran-3,5-diol], the IC50 in test [1] (setting [5]) was found to be 20 nM; in test [2], 40 nM.

In the case of `OC[C@H]1O[C@@H](SC(c2ccccc2)C2CC2)[C@H](O)[C@@H](n2cc(-c3cc(F)c(F)c(F)c3)nn2)[C@H]1O` (stereo partly drawn) [Example 2.54.100., (2S,3R,4S,5R,6R)-2-((Cyclopropyl(phenyl)methyl)thio)-6-(hydroxymethyl)-4-(4-(3,4,5-trifluorophenyl)-1H-1,2,3-triazol-1-yl)tetrahydro-2H-pyran-3,5-diol, reference compound], the figures for the 50% inhibitory concentration (IC50) in test [1] (setting [3]) and in test [2] were 3210 nM and 61200 nM, respectively.

For the compound `CO[C@@H]1[C@@H](n2cc(-c3cc(F)c(F)c(F)c3)nn2)[C@@H](O)[C@@H](CO)O[C@H]1S[C@@H](c1nccnc1Cl)C1(O)CCC(F)(F)CC1` [Example 2.44.133S.I., (2R,3R,4S,5R,6S)-6-(((S)-(3-Chloropyrazin-2-yl)(4,4-difluoro-1-hydroxycyclohexyl)methyl)thio)-2-(hydroxymethyl)-5-methoxy-4-(4-(3,4,5-trifluorophenyl)-1H-1,2,3-triazol-1-yl)tetrahydro-2H-pyran-3-ol], the concentration for half-maximal inhibition (IC50) in test [1] (setting [6]) is 2710 nM; in test [2] it was 7540 nM.
